Reference: paper PMC6219668 (Oncotarget, 2018)
Where two headings read alike, the source gives them in different places.

System: panel of nearly 500 cancer cell lines
Assay: Cancer Cell Line Encyclopedia profiling, 3-day CellTiter-Glo
Assay type: cell-based
Conditions: read-out: IC50

## CC(=O)c1c(C)c2cnc(Nc3ccc(N4CCNCC4)cn3)nc2n(C2CCCC2)c1=O [Palbociblib]
Loximvi (skin)
  IC50: > 8 µM
ls123 (large_intestine)
  IC50: > 8 µM
ls513 (large_intestine)
  IC50: 4.53 µM
lu99 (lung)
  IC50: 2.55 µM
ludlu1 (lung)
  IC50: > 8 µM
m059j (central_nervous_system)
  IC50: > 8 µM
malme3m (skin)
  IC50: > 8 µM
mc116 (haematopoietic_and_lymphoid_tissue)
  IC50: 8 µM
Mcas (ovary)
  IC50: > 8 µM
mcf7 (breast)
  IC50: > 8 µM
mdamb157 (breast)
  IC50: > 8 µM
mdamb175vii (breast)
  IC50: > 8 µM
mdamb415 (breast)
  IC50: 6.74 µM
mdamb436 (breast)
  IC50: > 8 µM
mdamb453 (breast)
  IC50: > 8 µM
mdamb468 (breast)
  IC50: > 8 µM
meg01 (haematopoietic_and_lymphoid_tissue)
  IC50: > 8 µM
Melho (skin)
  IC50: > 8 µM
Messa (soft_tissue)
  IC50: > 8 µM
mfe280 (endometrium)
  IC50: > 8 µM
mg63 (bone)
  IC50: > 8 µM
miapaca2 (pancreas)
  IC50: > 8 µM
Mino (haematopoietic_and_lymphoid_tissue)
  IC50: 1.4 µM
Mj (haematopoietic_and_lymphoid_tissue)
  IC50: 4.62 µM
mkn7 (stomach)
  IC50: > 8 µM
mkn45 (stomach)
  IC50: > 8 µM
mkn74 (stomach)
  IC50: > 8 µM
Moggccm (central_nervous_system)
  IC50: > 8 µM
mpp89 (pleura)
  IC50: > 8 µM
msto211h (pleura)
  IC50: 5.5 µM
ncih23 (lung)
  IC50: > 8 µM
ncih28 (pleura)
  IC50: 6.05 µM
ncih211 (lung)
  IC50: > 8 µM
ncih226 (lung)
  IC50: > 8 µM
ncih322 (lung)
  IC50: > 8 µM
ncih358 (lung)
  IC50: > 8 µM
ncih441 (lung)
  IC50: > 8 µM
ncih520 (lung)
  IC50: > 8 µM
ncih522 (lung)
  IC50: > 8 µM
ncih647 (lung)
  IC50: > 8 µM
ncih650 (lung)
  IC50: > 8 µM
ncih661 (lung)
  IC50: > 8 µM
ncih727 (lung)
  IC50: > 8 µM
ncih747 (large_intestine)
  IC50: > 8 µM
ncih810 (lung)
  IC50: > 8 µM
ncih1048 (lung)
  IC50: > 8 µM
ncih1092 (lung)
  IC50: > 8 µM
ncih1184 (lung)
  IC50: > 8 µM
ncih1341 (lung)
  IC50: > 8 µM
ncih1355 (lung)
  IC50: > 8 µM
ncih1373 (lung)
  IC50: > 8 µM
ncih1563 (lung)
  IC50: > 8 µM
ncih1568 (lung)
  IC50: > 8 µM
ncih1573 (lung)
  IC50: > 8 µM
ncih1581 (lung)
  IC50: > 8 µM
ncih1648 (lung)
  IC50: > 8 µM
ncih1650 (lung)
  IC50: > 8 µM
ncih1651 (lung)
  IC50: > 8 µM
ncih1666 (lung)
  IC50: > 8 µM
ncih1693 (lung)
  IC50: > 8 µM
ncih1694 (lung)
  IC50: > 8 µM
ncih1792 (lung)
  IC50: > 8 µM
ncih1793 (lung)
  IC50: 2.04 µM
ncih1869 (lung)
  IC50: > 8 µM
ncih1915 (lung)
  IC50: > 8 µM
ncih1944 (lung)
  IC50: 4.49 µM
ncih1975 (lung)
  IC50: > 8 µM
ncih2009 (lung)
  IC50: > 8 µM
ncih2023 (lung)
  IC50: > 8 µM
ncih2030 (lung)
  IC50: > 8 µM
ncih2052 (pleura)
  IC50: > 8 µM
ncih2085 (lung)
  IC50: > 8 µM
ncih2087 (lung)
  IC50: > 8 µM
ncih2122 (lung)
  IC50: > 8 µM
ncih2170 (lung)
  IC50: > 8 µM
ncih2172 (lung)
  IC50: > 8 µM
ncih2228 (lung)
  IC50: > 8 µM
ncih2444 (lung)
  IC50: 6.71 µM
ncih2452 (pleura)
  IC50: > 8 µM
ncih3255 (lung)
  IC50: > 8 µM
ncin87 (stomach)
  IC50: > 8 µM
nihovcar3 (ovary)
  IC50: > 8 µM
nugc3 (stomach)
  IC50: > 8 µM
nugc4 (stomach)
  IC50: 1.61 µM
oc314 (ovary)
  IC50: > 8 µM
oc315 (ovary)
  IC50: > 8 µM
oc316 (ovary)
  IC50: > 8 µM
ociaml2 (haematopoietic_and_lymphoid_tissue)
  IC50: 1.53 µM
ocum1 (stomach)
  IC50: > 8 µM
oe21 (oesophagus)
  IC50: 4.75 µM
oe33 (oesophagus)
  IC50: > 8 µM
oncodg1 (ovary)
  IC50: > 8 µM
ons76 (central_nervous_system)
  IC50: > 8 µM
ov90 (ovary)
  IC50: > 8 µM
ovcar4 (ovary)
  IC50: > 8 µM
ovcar8 (ovary)
  IC50: > 8 µM
Ovmana (ovary)
  IC50: > 8 µM
Ovsaho (ovary)
  IC50: > 8 µM
Ovtoko (ovary)
  IC50: > 8 µM
p3hr1 (haematopoietic_and_lymphoid_tissue)
  IC50: 7.56 µM
p31fuj (haematopoietic_and_lymphoid_tissue)
  IC50: > 8 µM
panc0203 (pancreas)
  IC50: > 8 µM
panc0327 (pancreas)
  IC50: > 8 µM
panc0403 (pancreas)
  IC50: > 8 µM
panc1005 (pancreas)
  IC50: > 8 µM
pc3 (prostate)
  IC50: > 8 µM
Pfeiffer (haematopoietic_and_lymphoid_tissue)
  IC50: 6.95 µM
pk1 (pancreas)
  IC50: > 8 µM
pk59 (pancreas)
  IC50: > 8 µM
pk45h (pancreas)
  IC50: > 8 µM
pl45 (pancreas)
  IC50: > 8 µM
plcprf5 (liver)
  IC50: > 8 µM
Raji (haematopoietic_and_lymphoid_tissue)
  IC50: > 8 µM
Rd (soft_tissue)
  IC50: > 8 µM
Reh (haematopoietic_and_lymphoid_tissue)
  IC50: 5.91 µM
rerfgc1b (stomach)
  IC50: > 8 µM
Rerflcai (lung)
  IC50: > 8 µM
Rerflcms (lung)
  IC50: > 8 µM
Rkn (soft_tissue)
  IC50: > 8 µM
Rko (large_intestine)
  IC50: > 8 µM
rl952 (endometrium)
  IC50: > 8 µM
rt4 (urinary_tract)
  IC50: > 8 µM
rt112 (urinary_tract)
  IC50: > 8 µM
rvh421 (skin)
  IC50: > 8 µM
saos2 (bone)
  IC50: > 8 µM
sbc5 (lung)
  IC50: > 8 µM
Scaber (urinary_tract)
  IC50: > 8 µM
scc25 (upper_aerodigestive_tract)
  IC50: > 8 µM
sf126 (central_nervous_system)
  IC50: > 8 µM
sf295 (central_nervous_system)
  IC50: > 8 µM
sf8657 (skin)
  IC50: > 8 µM
sh10tc (stomach)
  IC50: > 8 µM
shp77 (lung)
  IC50: > 8 µM
sjrh30 (soft_tissue)
  IC50: > 8 µM
sjsa1 (bone)
  IC50: > 8 µM
skbr3 (breast)
  IC50: > 8 µM
skco1 (large_intestine)
  IC50: > 8 µM
skes1 (bone)
  IC50: > 8 µM
skhep1 (liver)
  IC50: > 8 µM
sklu1 (lung)
  IC50: > 8 µM
skmel2 (skin)
  IC50: > 8 µM
skmel5 (skin)
  IC50: > 8 µM
skmel24 (skin)
  IC50: > 8 µM
skmel30 (skin)
  IC50: > 8 µM
skmel31 (skin)
  IC50: > 8 µM
skmm2 (haematopoietic_and_lymphoid_tissue)
  IC50: > 8 µM
Sknas (autonomic_ganglia)
  IC50: > 8 µM
sknbe2 (autonomic_ganglia)
  IC50: 4.99 µM
Skndz (autonomic_ganglia)
  IC50: > 8 µM
Sknsh (autonomic_ganglia)
  IC50: > 8 µM
skov3 (ovary)
  IC50: > 8 µM
Sngm (endometrium)
  IC50: > 8 µM
snu1 (stomach)
  IC50: 5.73 µM
snu16 (stomach)
  IC50: > 8 µM
snu182 (liver)
  IC50: > 8 µM
snu423 (liver)
  IC50: > 8 µM
snu449 (liver)
  IC50: > 8 µM
snuc2a (large_intestine)
  IC50: > 8 µM
snuc2b (large_intestine)
  IC50: > 8 µM
su8686 (pancreas)
  IC50: > 8 µM
sudhl8 (haematopoietic_and_lymphoid_tissue)
  IC50: 1.21 µM
sudhl10 (haematopoietic_and_lymphoid_tissue)
  IC50: 3.42 µM
suit2 (pancreas)
  IC50: > 8 µM
supm2 (haematopoietic_and_lymphoid_tissue)
  IC50: 5.92 µM
supt1 (haematopoietic_and_lymphoid_tissue)
  IC50: > 8 µM
sw48 (large_intestine)
  IC50: > 8 µM
sw403 (large_intestine)
  IC50: > 8 µM
sw480 (large_intestine)
  IC50: > 8 µM
sw579 (thyroid)
  IC50: > 8 µM
sw620 (large_intestine)
  IC50: > 8 µM
sw780 (urinary_tract)
  IC50: 1.64 µM
sw900 (lung)
  IC50: > 8 µM
sw1271 (lung)
  IC50: > 8 µM
sw1353 (bone)
  IC50: > 8 µM
sw1417 (large_intestine)
  IC50: > 8 µM
sw1990 (pancreas)
  IC50: > 8 µM
t3m10 (lung)
  IC50: > 8 µM
t24 (urinary_tract)
  IC50: > 8 µM
t84 (large_intestine)
  IC50: > 8 µM
t98g (central_nervous_system)
  IC50: > 8 µM
t47d (breast)
  IC50: > 8 µM
tc71 (bone)
  IC50: > 8 µM
Tccsup (urinary_tract)
  IC50: > 8 µM
te9 (oesophagus)
  IC50: > 8 µM
te617t (soft_tissue)
  IC50: 1.01 µM
Ten (endometrium)
  IC50: > 8 µM
Toledo (haematopoietic_and_lymphoid_tissue)
  IC50: > 8 µM
tov21g (ovary)
  IC50: > 8 µM
tov112d (ovary)
  IC50: > 8 µM
